Measurements published in patent US11643405B2, “Compound for treatment or prevention of liver diseases” (JIANGSU ATOM BIOSCIENCE AND PHARMACEUTICAL CO., LTD., priority 2018, dated 2023).

How the values were obtained:
NASH mice = assay: Efficacy on non-alcoholic steatohepatitis (NASH) mice fed high-fat feed; format: in vivo, C57BL/6 mice; details: for Liver coefficient (liver weight/body weight) / Liver weight: 28 days; for Liver weight: X ± SD
Procedure: The test compounds were 4 and 7, respectively; the positive control silymarin was purchased from Shanghai Dibai Biotechnology Co., Ltd., with the batch number HH06.
Low-dose group (35 mg/kg) solution preparation: the quantitative test compound was precisely weighed and a certain amount of normal saline was added to prepare the oral suspension solution with the concentration of 3.5 mg/mL. The administration volume was 10 mL/kg.
High-dose group (70 mg/kg) solution preparation: the quantitative test compound was precisely weighed and a certain amount of normal saline was added to prepare the oral suspension solution with the concentration of 7.0 mg/mL. The administration volume was 10 mL/kg.
High-fat feed: basic feed ingredients were corn, flour, imported fish meal, soybean meal, secondary meal, yeast meal, soybean oil, etc. The high-fat feed was prepared from 73.6% basic feed with 10% lard, 10% egg yolk powder, 5% sucrose, 1.2% cholesterol and 0.2% pig bile salt.
Source, species, strain: C57BL/6 mice, provided by Beijing Vital River Laboratory Animal Technology Co., Ltd. Nanjing Branch (experimental animal production license: SCXK (Su) 2016-0003); experimental animal use license: SYXK (Jun) 2012-0049; age: 6-8 weeks at the beginning of dosing; weight: 18-22 g; gender: half male and half female.
After 3 days of adaptive feeding with normal feed, the mice were randomly assigned according to body weight: 8 mice were fed with normal feed and set as normal control (NC); the rest of mice were fed with high-fat feed until the end of the experiment. The mice were weighed and recorded every 3 days. After feeding with high-fat diet for 56 days (8 weeks), blood samples were collected from the orbital vein of mice to detect the blood biochemical indexes to identify whether the modelling was successful.
After successful modeling, the mice in the high-fat feed group were randomly divided into 6 groups with 8 animals in each group, including model group, compound 4 low dose group, compound 4 high dose group, compound 7 low dose group, compound 7 high dose group and silymarin high-dose group. The mice in each group were administered intragastrically according to the animal's body weight every day for 28 consecutive days (4 weeks). At the same time, during the administration period, the mice in each administration group and model group continued to be fed with high-fat feed until the end of the experiment. The normal control group was administered the corresponding volume of normal saline.
On the last day of the experiment, the mice in each group were fasted for 8 hours, blood was taken from the orbit and the serum was separated and then stored at −20° C. After blood collection, the mice were sacrificed and the liver was quickly separated, weighed and stored in a refrigerator at −80° C. Serum samples and liver tissue samples were subjected to determinations of serum triglyceride (TG), serum total cholesterol (TC), serum high-density lipoprotein (HDL-C), serum low-density lipoprotein (LDL-C), serum alanine aminotransferase (ALT), serum aspartate aminotransferase (AST), serum tumor necrosis factor alpha (TNFα), liver triglycerides (TG), liver total cholesterol (TC), liver malondialdehyde (MDA), liver superoxide dismutase (SOD); in addition, some livers of mice in the blank control group, model group, compound 7 low-dose group and silymarin high-dose group were fixed in neutral formaldehyde fixed solution and then HE staining was performed to analyzed the pathological changes of liver tissue.

in vivo = details: both sexes, ICR, mouse, po
Procedure: The test compound was compound 7; the positive control silymarin was purchased from Shanghai Dibai Biotechnology Co., Ltd., with the batch number HH06. Immediately before use, the suspension was prepared with normal saline and ultrasound to prepare a suspension with a corresponding concentration.
Low-dose group (1.5 g/kg) solution preparation: the quantitative test compound 7 or positive control compound was precisely weighed, and a certain amount of normal saline was added to prepare the oral suspension solution with the concentration of 75 mg/mL. The administration volume was 20 mL/kg.
High-dose group (3.0 g/kg) solution preparation: the quantitative test compound 7 or positive control compound was precisely weighed, and a certain amount of normal saline was added to prepare the oral suspension solution with the concentration of 150 mg/mL. The administration volume was 20 mL/kg.
ICR mice, SPF grade, weight: 16-18 g, 6-8 weeks old. Provided by Nantong University, laboratory animal production license number: SCXK (Su) 2014-0001; laboratory animal use license: SYXK (Su) 2017-0007.
16 ICR mice were randomly divided into compound 7 low-dose group, compound 7 high-dose group, silymarin low-dose group and silymarin high-dose group, with 4 mice in each group, half male and half female. […]

COc1cc(C2Oc3cc(C4Oc5cc(O)cc(O)c5CC4O)cc(O)c3OC2CO)ccc1O (centres unmarked) [Compound 7, 2-{8-hydroxy-3-(4-hydroxy-3-methoxyphenyl)-2-hydroxymethyl-2,3-dihydrobenzo[b][1,4]dioxan-6-yl}chroman-3,5,7-triol]
TG (NASH mice; 35 mg/kg/day): 1.22 ± 0.06 mmol/L
Liver coefficient (liver weight/body weight) (NASH mice; 35 mg/kg/day intragastric): 4.53 ± 0.38 %
Liver weight (NASH mice; 35 mg/kg/day intragastric): 1.40 ± 0.05 g
TG (NASH mice; 70 mg/kg/day): 1.25 ± 0.06 mmol/L
Liver coefficient (liver weight/body weight) (NASH mice; 70 mg/kg/day intragastric): 4.51 ± 0.28 %
Liver weight (NASH mice; 70 mg/kg/day intragastric): 1.41 ± 0.02 g
Therapeutic effect on non-alcoholic steatohepatitis in mice (in words) (NASH mice; 35 and 70 mg/kg): significant therapeutic effects
MDA (NASH mice; liver, 35 mg/kg/day): 2.84 ± 0.24 nmol/mg
SOD (NASH mice; liver, 35 mg/kg/day): 18.54 ± 4.41 U/mg
TC (NASH mice; liver, 35 mg/kg/day): 1.53 ± 0.06 mmol/L
MDA (NASH mice; liver, 70 mg/kg/day): 2.79 ± 0.21 nmol/mg
SOD (NASH mice; liver, 70 mg/kg/day): 19.44 ± 3.11 U/mg
TC (NASH mice; liver, 70 mg/kg/day): 1.54 ± 0.09 mmol/L
Liver histopathology (HE staining) (NASH mice; low-dose group (35 mg/kg)): no lipid droplet vacuoles caused by steatosis
ALT (NASH mice; serum, 35 mg/kg/day): 63.03 ± 30.59 U/L
AST (NASH mice; serum, 35 mg/kg/day): 115.16 ± 13.42 U/L
HDL-C (NASH mice; serum, 35 mg/kg/day): 0.83 ± 0.35 mmol/L
LDL-C (NASH mice; serum, 35 mg/kg/day): 1.95 ± 0.50 mmol/L
TC (NASH mice; serum, 35 mg/kg/day): 2.59 ± 0.38 mmol/L
TG (NASH mice; serum, 35 mg/kg/day): 1.13 ± 0.06 mmol/L
TNF-α (NASH mice; serum, 35 mg/kg/day): 414.26 ± 11.57 ng/L
ALT (NASH mice; serum, 70 mg/kg/day): 75.75 ± 27.48 U/L
AST (NASH mice; serum, 70 mg/kg/day): 123.61 ± 5.41 U/L
HDL-C (NASH mice; serum, 70 mg/kg/day): 0.89 ± 0.46 mmol/L
LDL-C (NASH mice; serum, 70 mg/kg/day): 1.85 ± 0.37 mmol/L
TC (NASH mice; serum, 70 mg/kg/day): 2.63 ± 0.81 mmol/L
TG (NASH mice; serum, 70 mg/kg/day): 1.11 ± 0.07 mmol/L
TNF-α (NASH mice; serum, 70 mg/kg/day): 425.80 ± 9.77 ng/L
MTD at 14 days (in vivo): 3000 mg/kg
